Reference: article PMC6934184, “Selective DNA-PKcs inhibition extends the therapeutic index of localized radiotherapy and chemotherapy” (The Journal of Clinical Investigation, 2019)

Molecular target: T1, JAK2 JH1 JH2 (Homo sapiens, UniProt O60674)
T1 construct: JAK2 JH1 JH2; purchased Thermo Fisher Scientific (Life Technologies) SelectScreen
Test: SelectScreen Z'LYTE
Format: biochemical
In short: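 Percent values come from Thermo SelectScreen profiling of NU5455, combining activity and binding assays. CSF1R was run in Z'LYTE format at Km app ATP, and CAMK1 in Adapta format with ATP listed at 10.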

T1 sequence (O60674 532-1132 limits assumed): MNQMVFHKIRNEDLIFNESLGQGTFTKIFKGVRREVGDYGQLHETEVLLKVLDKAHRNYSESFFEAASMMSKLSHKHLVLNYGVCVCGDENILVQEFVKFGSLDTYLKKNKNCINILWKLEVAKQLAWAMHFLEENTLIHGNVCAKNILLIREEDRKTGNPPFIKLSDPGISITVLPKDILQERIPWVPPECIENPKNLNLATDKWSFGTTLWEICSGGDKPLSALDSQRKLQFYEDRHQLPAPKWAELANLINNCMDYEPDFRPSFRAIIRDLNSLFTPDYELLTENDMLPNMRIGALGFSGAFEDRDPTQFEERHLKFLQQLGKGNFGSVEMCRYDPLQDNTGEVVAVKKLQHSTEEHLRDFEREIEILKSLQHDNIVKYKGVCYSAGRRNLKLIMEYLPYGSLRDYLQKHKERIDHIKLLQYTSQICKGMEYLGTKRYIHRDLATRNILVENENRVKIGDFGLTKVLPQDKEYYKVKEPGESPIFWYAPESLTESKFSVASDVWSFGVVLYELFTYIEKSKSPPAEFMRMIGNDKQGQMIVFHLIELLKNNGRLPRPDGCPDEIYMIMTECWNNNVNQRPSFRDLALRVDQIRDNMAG

`CN(C(=O)CN1CCOCC1)c1ccc2sc3c(-c4cccc5c(=O)cc(N6CC7CCC(C6)O7)oc45)cccc3c2c1` [NU5455] was tested, and the inhibition at 1 µM was -6.7%.
